Test results reported in patent US20230233569A1 (Revolution Medicines, Inc., priority 2020, published 2023).
Where “and” joins values, the source holds several entries; their conditions need not be identical. Identical values can stand only once. Like-named read-outs stand apart in the source and are kept apart here.

Legend:
[1] = test system: K-Ras G12C (NCI-H358 cells); experiment: Potency assay: pERK (AlphaLISA SureFire or In-Cell Western); assay type: cell-based; conditions: Homo sapiens
Procedure: (§1) The purpose of this assay is to measure the ability of test compounds to inhibit K-Ras in cells. […] This procedure measures a decrease in cellular pERK in response to test compounds.
(§2) NCI-H358 cells were grown and maintained using media and procedures recommended by the ATCC. On the day prior to compound addition, cells were plated in 384-well cell culture plates (40 μl/well) and grown overnight in a 37° C., 5% CO2 incubator. Test compounds were prepared in 10, 3-fold dilutions in DMSO, with a high concentration of 10 mM. On the day of assay, 40 nL of test compound was added to each well of cell culture plate using an Echo550 liquid handler (LabCyte®). Concentrations of test compound were tested in duplicate. After compound addition, cells were incubated 4 hours at 37° C., 5% CO2. Following incubation, culture medium was removed and cells were washed once with phosphate buffered saline.
(§3) In some experiments, cellular pERK level was determined using the AlphaLISA SureFire Ultra p-ERK1/2 Assay Kit (PerkinElmer). Cells were lysed in 25 μL lysis buffer, with shaking at 600 RPM at room temperature. […] After a 2-hour incubation in the dark, 5 μL donor mix was added, plate was sealed, and incubated 2 hours at room temperature. Signal was read on an Envision plate reader (PerkinElmer) using standard AlphaLISA settings. Analysis of raw data was carried out in Excel (Microsoft) and Prism (GraphPad). Signal was plotted vs. the decadal logarithm of compound concentration, and IC50 was determined by fitting a 4-parameter sigmoidal concentration response model.
In other experiments, cellular pERK was determined by In-Cell Western. […] Fixed cells were washed 4 times for 5 minutes with TBS containing 0.1% Triton X-100 (TBST) and then blocked with 100 μL Odyssey blocking buffer (LI-COR) for 60 minutes at room temperature. […] Cells were washed 4 times for 5 minutes with TBST. Secondary antibody (IR-800CW rabbit, LI-COR, diluted 1:800) and DNA stain DRAQ5 (LI-COR, diluted 1:2000) were added and incubated 1-2 hours at room temperature. Cells were washed 4 times for 5 minutes with TBST. Plates were scanned on a LI-COR Odyssey CLx Imager. Analysis of raw data was carried out in Excel (Microsoft) and Prism (GraphPad). Signal was plotted vs. the decadal logarithm of compound concentration, and IC50 was determined by fitting a 4-parameter sigmoidal concentration response model.
as §1
as §2, with “mM. On day of” for “mM. On the day of”, “assay, 40 nl of test” for “assay, 40 nL of test”
as §3, with “μl” for “μL”, “sealed” for “sealed,”

NCI-H358 (K-Ras G12C) = experiment: CellTiter-Glo cell viability assay, 5-day treatment; assay type: cell-based; conditions: Homo sapiens
Procedure, shortened: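 Seeded cells received test compound by direct dispensing. On day 5 the plates sat at room temperature approximately 30 minutes, then luminescence was measured. Data were normalized to DMSO and curve-fitted with four parameters.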

KRAS G12C = KRAS G12C (Homo sapiens, UniProt P01116+P62937, G12C); experiment: Disruption of BRAF RBD interaction with Ras (FRET / MOA assay, with Cyclophilin A); assay type: biochemical; conditions: KRAS G12C; read-out: KRAS G12C FRET data IC50
Procedure, shortened: (§4)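 TR-FRET: nucleotide-loaded K-Ras mutant or WT with Cyclophilin A and BRAF RBD, compound 10-point 3-fold from 30 μM final, 3 h at 25° C, then anti-His Eu (10 nM) and anti-GST APC (50 nM) for 1.5 h. Decreased FRET ratio versus DMSO gives IC50.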

KRAS G12D = KRAS G12D (Homo sapiens, UniProt P01116+P62937, G12D); experiment: as above; assay type: biochemical; conditions: read-out: KRAS G12D FRET data, IC50
Procedure, shortened: as §4

KRAS G12S = KRAS G12S (Homo sapiens, UniProt P01116+P62937, G12S); experiment: as above; assay type: biochemical; conditions: read-out: KRAS G12S FRET data, IC50
Procedure, shortened: as §4

KRAS G12V = KRAS G12V (Homo sapiens, UniProt P01116+P62937, G12V); experiment: as above; assay type: biochemical; conditions: KRAS G12V; read-out: KRAS G12V FRET data IC50
Procedure, shortened: as §4

KRAS G13C = KRAS G13C (Homo sapiens, UniProt P01116+P62937, G13C); experiment: as above; assay type: biochemical; conditions: KRAS G13C; read-out: KRAS G13C FRET data IC50
Procedure, shortened: as §4

KRAS G13D = KRAS G13D (Homo sapiens, UniProt P01116+P62937, G13D); experiment: as above; assay type: biochemical; conditions: KRAS G13D; read-out: KRAS G13D FRET data IC50
Procedure, shortened: as §4

KRAS WT = KRAS WT (Homo sapiens, UniProt P01116+P62937); experiment: as above; assay type: biochemical; conditions: KRAS WT; read-out: KRAS WT FRET data IC50
Procedure, shortened: as §4

NRAS G12C = NRAS G12C (Homo sapiens, UniProt P01111+P62937, G12C); experiment: as above; assay type: biochemical; conditions: NRAS G12C; read-out: NRAS G12C FRET data IC50
[2] = NCI-H358, H358 KRAS G12C, read-out: pERK EC50
[3] = NCI-H358, H358, K-Ras G12C, read-out: Additional H358 Cell Viability assay data (K-Ras G12C, IC50)

Chain of KRAS WT (P01116 1-169 isoform P01116-2 limits assumed): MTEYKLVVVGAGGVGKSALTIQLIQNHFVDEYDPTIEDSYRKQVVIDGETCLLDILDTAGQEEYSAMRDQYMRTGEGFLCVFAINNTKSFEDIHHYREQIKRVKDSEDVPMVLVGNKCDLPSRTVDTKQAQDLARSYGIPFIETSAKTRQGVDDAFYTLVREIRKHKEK
Chain of KRAS WT (P62937 whole entry): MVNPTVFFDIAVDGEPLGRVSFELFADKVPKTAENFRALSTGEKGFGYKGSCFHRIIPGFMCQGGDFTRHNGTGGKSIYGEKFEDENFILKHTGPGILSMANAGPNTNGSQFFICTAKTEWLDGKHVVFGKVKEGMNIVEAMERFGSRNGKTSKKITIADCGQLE
Chain of KRAS G12C (P01116 1-169 isoform P01116-2 G12C): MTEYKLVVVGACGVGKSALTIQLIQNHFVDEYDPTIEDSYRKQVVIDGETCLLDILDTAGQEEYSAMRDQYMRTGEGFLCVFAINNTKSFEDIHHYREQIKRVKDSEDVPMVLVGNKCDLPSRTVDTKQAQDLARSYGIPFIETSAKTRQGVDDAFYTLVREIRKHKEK
Chain of KRAS G12C (P62937 whole entry): as the sequence (P62937 whole entry) above
Chain of NRAS G12C (P01111 whole entry G12C): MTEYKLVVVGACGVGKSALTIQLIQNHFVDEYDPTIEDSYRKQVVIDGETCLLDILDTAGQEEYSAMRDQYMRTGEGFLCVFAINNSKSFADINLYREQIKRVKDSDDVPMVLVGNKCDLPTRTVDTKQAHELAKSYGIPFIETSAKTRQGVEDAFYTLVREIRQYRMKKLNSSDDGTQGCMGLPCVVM
Chain of NRAS G12C (P62937 whole entry): as the sequence (P62937 whole entry) above
Chain of KRAS G12D (P01116 1-169 isoform P01116-2 G12D limits assumed): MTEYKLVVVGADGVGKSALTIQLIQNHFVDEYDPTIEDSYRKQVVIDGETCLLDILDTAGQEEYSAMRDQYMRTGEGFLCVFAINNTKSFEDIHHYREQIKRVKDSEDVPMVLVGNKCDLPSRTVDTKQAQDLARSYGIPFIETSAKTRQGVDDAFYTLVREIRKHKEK
Chain of KRAS G12D (P62937 whole entry): as the sequence (P62937 whole entry) above
Chain of KRAS G13D (P01116 1-169 isoform P01116-2 G13D limits assumed): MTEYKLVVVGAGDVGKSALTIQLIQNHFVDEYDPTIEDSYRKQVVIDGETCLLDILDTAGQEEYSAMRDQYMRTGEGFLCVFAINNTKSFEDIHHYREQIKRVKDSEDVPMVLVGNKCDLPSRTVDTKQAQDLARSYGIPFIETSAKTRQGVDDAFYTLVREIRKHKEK
Chain of KRAS G13D (P62937 whole entry): as the sequence (P62937 whole entry) above
Chain of KRAS G13C (P01116 1-169 isoform P01116-2 G13C): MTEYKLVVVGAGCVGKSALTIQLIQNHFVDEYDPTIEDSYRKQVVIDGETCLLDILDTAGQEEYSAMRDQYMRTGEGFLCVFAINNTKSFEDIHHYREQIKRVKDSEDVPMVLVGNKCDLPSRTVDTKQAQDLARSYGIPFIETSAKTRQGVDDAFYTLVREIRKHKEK
Chain of KRAS G13C (P62937 whole entry): as the sequence (P62937 whole entry) above
Chain of KRAS G12S (P01116 1-169 isoform P01116-2 G12S limits assumed): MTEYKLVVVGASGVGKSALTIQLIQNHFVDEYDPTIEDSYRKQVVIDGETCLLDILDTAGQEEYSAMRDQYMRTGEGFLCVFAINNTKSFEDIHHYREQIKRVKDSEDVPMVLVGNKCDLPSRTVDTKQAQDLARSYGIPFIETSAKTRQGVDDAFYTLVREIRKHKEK
Chain of KRAS G12S (P62937 whole entry): as the sequence (P62937 whole entry) above
Chain of KRAS G12V (P01116 1-169 isoform P01116-2 G12V limits assumed): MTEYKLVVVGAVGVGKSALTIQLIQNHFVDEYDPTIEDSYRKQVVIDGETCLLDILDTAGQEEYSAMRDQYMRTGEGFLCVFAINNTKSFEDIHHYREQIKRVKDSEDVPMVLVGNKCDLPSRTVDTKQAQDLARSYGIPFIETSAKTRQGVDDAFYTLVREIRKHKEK
Chain of KRAS G12V (P62937 whole entry): as the sequence (P62937 whole entry) above

| EC50 [1, 2] | IC50 (NCI-H358 (K-Ras G12C); [3]) | IC50 (KRAS G12C) | IC50 (KRAS G12D) | IC50 (KRAS G12S) | IC50 (KRAS G12V) | IC50 (KRAS G13C) | IC50 (KRAS G13D) | IC50 (KRAS WT) | IC50 (NRAS G12C) | EC50 ([1]; NCI-H358, read-out: pERK EC50) | IC50 (NCI-H358 (K-Ras G12C); NCI-H358, read-out: Additional H358 Cell Viability assay data (K-Ras G12C, IC50, uM), H358, K-Ras G12C) | Structure (SMILES) |
| --- | --- | --- | --- | --- | --- | --- | --- | --- | --- | --- | --- | --- |
| < 5 µM | < 0.01 µM | 0.01 to 0.1 µM | 1 to 10 µM | 1 to 10 µM | 1 to 10 µM | 0.1 to 1 µM | 1 to 10 µM | 1 to 10 µM | 0.01 to 0.1 µM | – | – | CCn1c(-c2cccnc2[C@H](C)OC)c2c3cc(ccc31)-c1cccc(c1)C[C@H](NC(=O)[C@H](C(C)C)N(C)C(=O)[C@@H]1CCN(C(=O)C#CC(C)(C)N3CCC3)C1)C(=O)N1CCC[C@H](N1)C(=O)OCC(C)(C)C2 [Example A476] |
| – | – | – | – | – | – | – | – | – | – | < 5 µM | 0.1 to 1 µM | CC#CC(=O)N1CC[C@H](C(=O)N(C)[C@@H](C(=O)N[C@H]2Cc3cc(O)cc(c3)-c3ccc4c(c3)c(c(-c3cccnc3[C@H](C)OC)n4CC)CC(C)(C)COC(=O)[C@@H]3CCCN(N3)C2=O)C(C)C)C1 [Example A199] |
| < 5 µM | – | 0.1 to 1 µM | > 10 µM | > 10 µM | 1 to 10 µM | 1 to 10 µM | > 10 µM | 1 to 10 µM | 0.1 to 1 µM | – | – | C=CC(=O)N1CC(OC[C@H](C(=O)N[C@H]2Cc3cccc(c3)-c3ccc4c(c3)c(c(-c3cccnc3[C@H](C)OC)n4CC)CC(C)(C)COC(=O)[C@@H]3CCCN(N3)C2=O)C(C)C)C1 (racemic) [Example A483] |
| < 5 µM | – | – | – | – | – | – | – | – | – | – | – | C=CC(=O)N1CC[C@H](C(=O)N(C)[C@H](C(=O)N[C@H]2Cc3cc(O)cc(c3)-c3ccc4c(c3)c(c(-c3cnn(C)c3[C@H](C)OC)n4CC)CC(C)(C)COC(=O)[C@@H]3CCCN(N3)C2=O)C(C)C)C1 [Example A166] |
| < 5 µM | 0.1 to 1 µM | – | – | – | – | – | – | – | – | – | – | C=CC(=O)N1CC[C@H](C(=O)N(C)[C@H](C(=O)N[C@H]2Cc3cccc(c3)-c3ccc4c(c3)c(c(-c3cccnc3COC)n4CC)CC(C)(C)COC(=O)[C@@H]3CCCN(N3)C2=O)C(C)C)C1 [Example A65] |

Continued, molecule first:

| Structure (SMILES) | EC50 [1, 2] | IC50 (NCI-H358 (K-Ras G12C); [3]) | IC50 (KRAS G12C) | IC50 (KRAS G12D) | IC50 (KRAS G12S) | IC50 (KRAS G12V) | IC50 (KRAS G13C) | IC50 (KRAS G13D) | IC50 (KRAS WT) | IC50 (NRAS G12C) | EC50 ([1]; NCI-H358, read-out: pERK EC50) | IC50 (NCI-H358 (K-Ras G12C); NCI-H358, read-out: Additional H358 Cell Viability assay data (K-Ras G12C, IC50, uM), H358, K-Ras G12C) |
| --- | --- | --- | --- | --- | --- | --- | --- | --- | --- | --- | --- | --- |
| C=CC(=O)N1CC(NC[C@H](C(=O)N[C@H]2Cc3cc(O)cc(c3)-c3ccc4c(c3)c(c(-c3cccnc3COC)n4CC)CC(C)(C)COC(=O)[C@@H]3CCCN(N3)C2=O)C(C)C)C1 [Example A174] | < 5 µM | > 1 µM | 0.1 to 1 µM | > 10 µM | > 10 µM | > 10 µM | 1 to 10 µM | > 10 µM | > 10 µM | 1 to 10 µM | – | – |
| CCn1c(-c2cccnc2COC)c2c3cc(ccc31)-c1cc(O)cc(c1)C[C@H](NC(=O)[C@H](C(C)C)N(C)C(=O)[C@H]1CCN(C(=O)C#CC(C)(C)N(C)C)C1)C(=O)N1CCC[C@H](N1)C(=O)OCC(C)(C)C2 [Example A162] | < 5 µM | < 0.01 µM | < 0.01 µM | 1 to 10 µM | 1 to 10 µM | 0.1 to 1 µM | 0.1 to 1 µM | 1 to 10 µM | 1 to 10 µM | < 0.01 µM | – | – |
| CCn1c(-c2cccnc2[C@H](C)OC)c2c3cc(ccc31)-c1cccc(c1)C[C@H](NC(=O)[C@H](C(C)C)N(C)C(=O)[C@H]1CCN(C(=O)C#C[C@@H]3CCO3)C1)C(=O)N1CCC[C@H](N1)C(=O)OCC(C)(C)C2 [Example A509] | < 5 µM | < 0.01 µM | – | – | – | – | – | – | – | < 0.01 µM | – | – |
| C=CC(=O)N1CC[C@H](C(=O)N(C)[C@H](C(=O)N[C@H]2Cc3cc(O)cc(c3)-c3ccc4c(c3)c(c(-c3ccc5c(c3)CN(C)C5)n4CC)CC(C)(C)COC(=O)[C@@H]3CCCN(N3)C2=O)C(C)C)C1 [Example A212] | < 5 µM | – | 0.1 to 1 µM and 1 to 10 µM | > 10 µM | 1 to 10 µM and > 10 µM | 1 to 10 µM and > 10 µM | 1 to 10 µM and > 10 µM | 1 to 10 µM and > 10 µM | 1 to 10 µM and > 10 µM | 0.1 to 1 µM and 1 to 10 µM | – | – |
| C=CC(=O)N1CC[C@H](C(=O)N(C)[C@H](C(=O)N[C@H]2Cc3cc(O)cc(c3)-c3ccc4c(C(C)(C)C#N)c(-c5ccccc5CCOC)n(c4c3)CC(C)(C)COC(=O)[C@@H]3CCCN(N3)C2=O)C(C)C)C1 [Example A12] | < 5 µM | – | – | – | – | – | – | – | – | – | – | – |
| CCn1c(-c2cccnc2[C@H](C)OC)c2c3cc(ccc31)-c1cccc(n1)C[C@H](NC(=O)[C@H](C(C)C)N1CC[C@@]3(CCN(C(=O)C#C[C@@H]4COCCN4C)C3)C1)C(=O)N1CCC[C@H](N1)C(=O)OCC(C)(C)C2 [Example A549] | < 5 µM | < 0.01 µM | – | – | – | – | – | – | – | – | – | – |
| CCn1c(-c2cccnc2[C@H](C)OC)c2c3cc(ccc31)-c1cccc(c1)C[C@H](NC(=O)[C@H](C(C)C)N1CC[C@@]3(CCN(C(=O)C#C[C@@H]4COCCN4C4COC4)C3)C1=O)C(=O)N1CCC[C@H](N1)C(=O)OCC(C)(C)C2 [Example A566] | < 5 µM | < 0.01 µM | – | – | – | – | – | – | – | – | – | – |
| C=CC(=O)N1CCC(C(=O)N(C)C(C(=O)NC2Cc3nc(cs3)-c3ccc4c(c3)c(c(-c3cccnc3C(C)OC)n4CC)CC(C)(C)COC(=O)C3CCCN(N3)C2=O)C(C)C)C1 (centres unmarked) [Example A279] | < 5 µM | – | 1 µM to 10 µM and > 10 µM (2×) | > 10 µM | > 10 µM | > 10 µM | 1 µM to 10 µM and > 10 µM (2×) | > 10 µM | > 10 µM | 1 µM to 10 µM and > 10 µM (2×) | – | – |
| C=CC(=O)N1CC[C@]2(CCN([C@H](C(=O)N[C@H]3Cc4cc(O)cc(c4)-c4ccc5c(c4)c(c(-c4ccccc4CCOC)n5CC)CC(C)(C)COC(=O)[C@@H]4CCCN(N4)C3=O)C(C)C)C2=O)C1 [Example A216] | < 5 µM | – | 0.1 to 1 µM and 1 to 10 µM | > 10 µM | 1 to 10 µM and > 10 µM | 1 to 10 µM and > 10 µM | 0.1 to 1 µM and > 10 µM | – | 1 to 10 µM and > 10 µM | – | – | – |
